# Source: patent US20060069132A1, “Azolecarboxamide herbicides” (priority 2004, published 2006)
# Columns and labels:
# cocklebur = test: Test B pre-/postemergence herbicide test; assay type: in vivo, Xanthium strumarium; settings: for Cocklebur plant response rating: postemergence, scale 0 (no effect) to 100 (complete control)
# Summary of the method: (§1)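 Visual rating, 0 (no effect) to 100 (complete control), versus untreated controls after 13–15 d in greenhouse. Pre- and postemergence applications (postemergence plants 2–18 cm, 1–4 leaves); flooded paddy arm at 2-leaf stage. Compounds in non-phytotoxic solvent plus surfactant.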
# rice [1] = test: Test B flooded paddy test; assay type: in vivo, Oryza sativa; settings: 1000 g ai/ha, scale 0 to 100 (0 no effect, 100 complete control)
# Summary of the method: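 Paddy species grown to the 2-leaf stage under flooding; blackgrass sprayed postemergence at 2–18 cm (1- to 4-leaf stage). Plants kept in a greenhouse for 13 to 15 days, then visually rated against controls on 0 (no effect) to 100 (complete control).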
# barnyardgrass [2] = test: Test B flooded paddy test; assay type: in vivo, Echinochloa crus-galli; settings: 1000 g ai/ha, scale 0 to 100 (0 no effect, 100 complete control)
# Summary of the method: (§2)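 Visual ratings, 0 (no effect) to 100 (complete control), made versus controls after 13–15 d greenhouse. Paddy plants treated at 2-leaf stage; postemergence plants at 1- to 4-leaf stage, 2–18 cm tall.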
# [3] = test system: smallflower umbrella sedge; test: Test C flooded paddy test; assay type: in vivo, Cyperus difformis
# wheat = test: Test B postemergence herbicide test; assay type: in vivo, Triticum aestivum; design: key to Wheat plant response rating: 0 = no effect, 100 = complete control; settings: postemergence, visual rating, scale 0 (no effect) to 100 (complete control)
# Summary of the method: (§3)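 Treated at 2-leaf (paddy) or 1–4-leaf, 2–18 cm (postemergence); greenhouse 13–15 d; visual score vs control, 0 none to 100 complete control; dash = not tested.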
# Surinam grass = test: Test B pre-/postemergence herbicide test; assay type: in vivo, Urochloa decumbens; settings: for Surinam Grass plant response rating: postemergence, scale 0 (no effect) to 100 (complete control)
# Summary of the method: (§4)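 Test chemicals in a non-phytotoxic solvent mixture with surfactant were applied preemergence to seeded species and postemergence to plants 2-18 cm tall (1- to 4-leaf stage); rice and barnyardgrass were also tested in a flooded paddy at the 2-leaf stage. Visual rating versus controls after 13-15 days in greenhouse, scale 0 (no effect) to 100 (complete control).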
# large crabgrass = test: Test B pre-/postemergence herbicide test; assay type: in vivo, Digitaria sanguinalis; settings: for Crabgrass, Large plant response rating: postemergence, scale 0 (no effect) to 100 (complete control)
# Summary of the method: as §4
# [4] = test system: small flower umbrella sedge; test: Test B flooded paddy test; assay type: in vivo, Cyperus difformis; settings: 1000 g ai/ha, scale 0 to 100 (0 no effect, 100 complete control)
# Summary of the method: as §2
# wild oat = test: Test B postemergence herbicide test; assay type: in vivo, Avena fatua; settings: postemergence, visual rating, scale 0 (no effect) to 100 (complete control)
# Summary of the method: as §3
# blackgrass = test: Test B postemergence herbicide test; assay type: in vivo, Alopecurus myosuroides; settings: postemergence, visual rating, scale 0 (no effect) to 100 (complete control)
# Summary of the method: as §2
# lambsquarters = test: Test B pre-/postemergence herbicide test; assay type: in vivo, Chenopodium album; settings: for Lambsquarters plant response rating: postemergence, scale 0 (no effect) to 100 (complete control)
# Summary of the method: as §4
# morningglory = test: Test B pre-/postemergence herbicide test; assay type: in vivo, Ipomoea coccinea; settings: for Morningglory plant response rating: postemergence, scale 0 (no effect) to 100 (complete control)
# Summary of the method: as §1
# ducksalad [5] = test: Test B flooded paddy test; assay type: in vivo, Heteranthera limosa; settings: 1000 g ai/ha, scale 0 to 100 (0 no effect, 100 complete control)
# Summary of the method: as §2
# velvetleaf = test: Test B pre-/postemergence herbicide test; assay type: in vivo, Abutilon theophrasti; settings: for Velvetleaf plant response rating: postemergence, scale 0 (no effect) to 100 (complete control)
# Summary of the method: as §4
# corn = test: Test B pre-/postemergence herbicide test; assay type: in vivo, Zea mays; settings: for Corn plant response rating: postemergence, scale 0 (no effect) to 100 (complete control)
# Summary of the method: as §4
# ducksalad [6] = test: Test C flooded paddy test; assay type: in vivo, Heteranthera limosa
# giant foxtail = test: Test B pre-/postemergence herbicide test; assay type: in vivo, Setaria faberi; settings: for Foxtail, Giant plant response rating: postemergence, scale 0 (no effect) to 100 (complete control)
# Summary of the method: as §4
# barnyardgrass [7] = test: Test B pre-/postemergence herbicide test; assay type: in vivo, Echinochloa crus-galli; settings: 0 = no effect, 100 = complete control, preemergence
# Summary of the method: as §1
# barnyardgrass [8] = test: Test C flooded paddy test; assay type: in vivo, Echinochloa crus-galli
# Summary of the method: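 After a postemergence application at 1 to 4 leaves (plants 2–18 cm high), or at 2 leaves for barnyardgrass in flooded paddy, plants stayed in the greenhouse for 12 to 14 days. Damage was then judged visually relative to control plants, with 100 indicating complete control.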
# rice [9] = test: Test C flooded paddy test; assay type: in vivo, Oryza sativa
# Summary of the method: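 Postemergence sprays applied to plants 2 to 18 cm tall (1- to 4-leaf stage); paddy species grown to 2-leaf stage under flooding. After 12 to 14 days in greenhouse, visual rating versus untreated controls on 0–100 scale (0 no effect, 100 complete control).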
# rice [10] = test: Test B pre-/postemergence herbicide test; assay type: in vivo, Oryza sativa; settings: 0 = no effect, 100 = complete control, preemergence
# Summary of the method: as §4
# pigweed = test: Test B pre-/postemergence herbicide test; assay type: in vivo, Amaranthus retroflexus
# Summary of the method: as §4
# [11] = 125 g ai/ha, 0 = no effect, 100 = complete control, preemergence
# [12] = 500 g ai/ha, visual rating, 0 = no effect, 100 = complete control, preemergence
# [13] = 62 g ai/ha, scale 0 to 100 (0 no effect, 100 complete control)
# [14] = 125 g ai/ha, scale 0 to 100 (0 no effect, 100 complete control)
# [15] = 250 g ai/ha, scale of 0 to 100, 0 is no effect, 100 is complete control
# [16] = 500 g ai/ha, visual rating after 12 to 14 days, scale 0 to 100 (0 no effect, 100 complete control)
structure (smiles),measurement,setting,value
CCc1cn(C(C)(C)C)nc1C(=O)Nc1cc(C(=O)N(C)C)ccn1 [Compound 232],Cocklebur plant response rating (0 to 100 scale),cocklebur; [11],0
same,"Plant response rating, Cocklebur",cocklebur; [12],0
same,Cocklebur plant response rating,"cocklebur; 125 g ai/ha, visual rating",10
same,Cocklebur plant response rating,"cocklebur; 500 g ai/ha, visual rating",30
same,Rice plant response rating,rice [1],50
same,Barnyardgrass plant response rating,barnyardgrass [2],40
same,"Sedge, Umbrella plant response rating",[3]; [13],0
same,"Sedge, Umbrella plant response rating",[3]; [14],35
same,"Sedge, Umbrella plant response rating",[3]; [15],55
same,"Plant response rating, Sedge, Umbrella",[3]; [16],85
same,Wheat plant response rating,wheat; 125 g ai/ha,0
same,Wheat plant response rating,wheat; 500 g ai/ha,0
same,Surinam Grass plant response rating (0 to 100 scale),Surinam grass; [11],0
same,"Plant response rating, Surinam Grass",Surinam grass; [12],30
same,Surinam Grass plant response rating,"Surinam grass; 125 g ai/ha, visual rating",10
same,Surinam Grass plant response rating,"Surinam grass; 500 g ai/ha, visual rating",20
same,"Crabgrass, Large plant response rating (0 to 100 scale)",large crabgrass; [11],60
same,"Plant response rating, Crabgrass, Large",large crabgrass; [12],100
same,"Crabgrass, Large plant response rating","large crabgrass; 125 g ai/ha, visual rating",10
same,"Crabgrass, Large plant response rating","large crabgrass; 500 g ai/ha, visual rating",20
same,"Sedge, Umbrella plant response rating",[4],90
same,"Oat, Wild plant response rating",wild oat; 125 g ai/ha,0
same,"Oat, Wild plant response rating",wild oat; 500 g ai/ha,0
same,Blackgrass plant response rating,blackgrass; 125 g ai/ha,0
same,Blackgrass plant response rating,blackgrass; 500 g ai/ha,0
same,Lambsquarters plant response rating (0 to 100 scale),lambsquarters; [11],80
same,"Plant response rating, Lambsquarters",lambsquarters; [12],90
same,Lambsquarters plant response rating,"lambsquarters; 125 g ai/ha, visual rating",50
same,Lambsquarters plant response rating,"lambsquarters; 500 g ai/ha, visual rating",60
same,Morningglory plant response rating (0 to 100 scale),morningglory; [11],10
same,"Plant response rating, Morningglory",morningglory; [12],20
same,Morningglory plant response rating,"morningglory; 125 g ai/ha, visual rating",30
same,Morningglory plant response rating,"morningglory; 500 g ai/ha, visual rating",70
same,Ducksalad plant response rating,ducksalad [5],80
same,Velvetleaf plant response rating (0 to 100 scale),velvetleaf; [11],20
same,"Plant response rating, Velvetleaf",velvetleaf; [12],40
same,Velvetleaf plant response rating,"velvetleaf; 125 g ai/ha, visual rating",30
same,Velvetleaf plant response rating,"velvetleaf; 500 g ai/ha, visual rating",40
same,Corn plant response rating (0 to 100 scale),corn; [11],0
same,"Plant response rating, Corn",corn; [12],0
same,Corn plant response rating,"corn; 125 g ai/ha, visual rating",10
same,Corn plant response rating,"corn; 500 g ai/ha, visual rating",20
same,Ducksalad plant response rating,ducksalad [6]; [13],0
same,Ducksalad plant response rating,ducksalad [6]; [14],0
same,Ducksalad plant response rating,ducksalad [6]; [15],30
same,"Plant response rating, Ducksalad",ducksalad [6]; [16],80
same,"Foxtail, Giant plant response rating (0 to 100 scale)",giant foxtail; [11],0
same,"Plant response rating, Foxtail, Giant",giant foxtail; [12],30
same,"Foxtail, Giant plant response rating","giant foxtail; 125 g ai/ha, visual rating",10
same,"Foxtail, Giant plant response rating","giant foxtail; 500 g ai/ha, visual rating",30
same,Barnyardgrass plant response rating (0 to 100 scale),barnyardgrass [7]; 125 g ai/ha,20
same,"Plant response rating, Barnyardgrass","barnyardgrass [7]; 500 g ai/ha, visual rating",60
same,Barnyardgrass plant response rating,barnyardgrass [8]; [13],0
same,Barnyardgrass plant response rating,barnyardgrass [8]; [14],0
same,Barnyardgrass plant response rating,barnyardgrass [8]; [15],0
same,"Plant response rating, Barnyardgrass",barnyardgrass [8]; [16],15
same,Rice plant response rating,rice [9]; [13],0
same,Rice plant response rating,rice [9]; [14],20
same,Rice plant response rating,rice [9]; [15],35
same,"Plant response rating, Rice",rice [9]; [16],60
same,Rice plant response rating (0 to 100 scale),rice [10]; 125 g ai/ha,10
same,"Plant response rating, Rice","rice [10]; 500 g ai/ha, visual rating",50
same,Pigweed plant response rating (0 to 100 scale),pigweed; [11],90
same,"Plant response rating, Pigweed",pigweed; [12],90
same,Pigweed plant response rating,"pigweed; postemergence, 500 g ai/ha, visual rating, scale 0 (no effect) to 100 (complete control)",40
